Patent US20250281424A1 (New York Blood Center, Inc, priority 2020, published 2025)

Biological target: T1, human PF4 (Homo sapiens, UniProt P02776)
T1 construct: PF4 is a 70 amino acid, lysine-rich 7.8 kDa platelet-specific protein; made in house; host or cells: Escherichia coli BL21DE3 pLysS (pT7-7) and/or Drosophila S2 cells
T1 sequence (P02776 32-101): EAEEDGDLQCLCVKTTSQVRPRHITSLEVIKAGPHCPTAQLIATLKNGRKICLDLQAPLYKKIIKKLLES
Test: Inhibition of PF4 tetramer formation (BS3 cross-linking, SDS-PAGE)
Type: biochemical
Details: for inhibition at 1 µM / inhibition at 3 µM / inhibition at 5 µM / inhibition at 10 µM: read-out: % inhibition of PF4 tetramer formation at single concentration of inhibitor; for inhibition at 5 µM: 5 μM inhibitor; for inhibition at 10 µM: 10 μM inhibitor (column A); for IC50: read-out: IC50 of PF4 tetramer formation inhibition
Method in brief: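 Recombinant human wild-type PF4 (E. coli-expressed, heparin-purified), 10 μg/ml in PBS, incubated with compound 15 min at 37° C or 60 min at room temperature, then cross-linked with 0.2 mM BS3 for 30 min at room temperature. Reducing 12% SDS-PAGE; bands quantified as % tetramer, trimer, dimer, monomer versus compound-free control.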

| Compound | inhibition at 1 µM (1 μM inhibitor) [%] | inhibition at 3 µM (3 μM inhibitor (column A)) [%] | % inhibition of PF4 tetramer formation at single concentration of inhibitor (1 μM inhibitor, 1 µM) [%] | % inhibition of PF4 tetramer formation at single concentration of inhibitor (3 μM inhibitor (column A), 3 µM) [%] | inhibition at 5 µM [%] | inhibition at 10 µM [%] | IC50 [µM] |
| --- | --- | --- | --- | --- | --- | --- | --- |
| COCCOCCOCCNC(=O)C1C(=O)c2ccc(Oc3ccc4c(c3)C(=O)C(C(=O)NCCOCCOCCOC)C4=O)cc2C1=O (stereo not drawn) [Example 384, N-{2-[2-(2-methoxyethoxy)ethoxy]ethyl}-5-{[2-({2-[2-(2-methoxyethoxy)ethoxy]ethyl}carbamoyl)-1,3-dioxo-2,3-dihydro-1H-inden-5-yl]oxy}-1,3-dioxo-2,3-dihydro-1H-indene-2-carboxamide] | 4 | 9 | – | – | – | – | – |
| CO[C@@H]1O[C@H](C(=O)C2C(=O)c3ccc(S(=O)(=O)c4ccc5c(c4)C(=O)C(C(=O)[C@H]4O[C@@H](OC)[C@H]6OC(C)(C)O[C@@H]64)C5=O)cc3C2=O)[C@H]2OC(C)(C)O[C@H]12 (stereo partly drawn) [Example 220, 2-[(3aS,4S,6R,6aS)-6-methoxy-2,2-dimethyl-tetrahydro-2H-furo[3,4-d][1,3]dioxole-4-carbonyl]-5-({2-[(3aS,4S,6R,6aS)-6-methoxy-2,2-dimethyl-tetrahydro-2H-furo[3,4-d][1,3]dioxole-4-carbonyl]-1,3-dioxo-2,3-dihydro-1H-inden-5-yl}sulfonyl)-2,3-dihydro-1H-indene-1,3-dione] | – | – | – | – | 90 | 92 | 2.5 |
| O=C(CCC(=O)C1C(=O)c2ccc(S(=O)(=O)c3ccc4c(c3)C(=O)C(C(=O)CCC(=O)c3cccc(Cl)c3Cl)C4=O)cc2C1=O)c1cccc(Cl)c1Cl (stereo not drawn) [Example 255, 2-[4-(2,3-dichlorophenyl)-4-oxobutanoyl]-5-({2-[4-(2,3-dichlorophenyl)-4-oxobutanoyl]-1,3-dioxo-2,3-dihydro-1H-inden-5-yl}sulfonyl)-2,3-dihydro-1H-indene-1,3-dione] | 18 | 42 | 9 | 51 | – | – | – |
| CC(C)(C)OC(=O)NCCCC(=O)C1C(=O)c2ccc(C(=O)c3ccc4c(c3)C(=O)C(C(=O)CCCNC(=O)OC(C)(C)C)C4=O)cc2C1=O (stereo not drawn) [Example 386, tert-butyl N-(4-{5-[2-(4-{[(tert-butoxy)carbonyl]amino}butanoyl)-1,3-dioxo-2,3-dihydro-1H-indene-5-carbonyl]-1,3-dioxo-2,3-dihydro-1H-inden-2-yl}-4-oxobutyl)carbamate] | 13 | 34 | – | – | – | – | – |
| CC(C)(C)OC(=O)NCCC(=O)C1C(=O)c2ccc(S(=O)(=O)c3ccc4c(c3)C(=O)C(C(=O)CCNC(=O)OC(C)(C)C)C4=O)cc2C1=O (stereo not drawn) [Example 164, tert-butyl N-[3-(5-{[2-(3-{[(tert-butoxy)carbonyl]amino}propanoyl)-1,3-dioxo-2,3-dihydro-1H-inden-5-yl]sulfonyl}-1,3-dioxo-2,3-dihydro-1H-inden-2-yl)-3-oxopropyl]carbamate] | – | – | – | – | 70 | 82 | 5 |

The next lines start with results.

| inhibition at 1 µM (1 μM inhibitor) [%] | inhibition at 3 µM (3 μM inhibitor (column A)) [%] | % inhibition of PF4 tetramer formation at single concentration of inhibitor (1 μM inhibitor, 1 µM) [%] | % inhibition of PF4 tetramer formation at single concentration of inhibitor (3 μM inhibitor (column A), 3 µM) [%] | Compound | inhibition at 5 µM [%] | inhibition at 10 µM [%] | IC50 [µM] |
| --- | --- | --- | --- | --- | --- | --- | --- |
| 27 | 31 | – | – | COCCOCCN(CC(=O)C1C(=O)c2ccc(Oc3ccc4c(c3)C(=O)C(C(=O)CN(CCOCCOC)C(=O)OC(C)(C)C)C4=O)cc2C1=O)C(=O)OC(C)(C)C (stereo not drawn) [Example 390, tert-butyl N-{2-[5-({2-[2-(11,11-dimethyl-9-oxo-2,5,10-trioxa-8-azadodecan-8-yl)acetyl]-1,3-dioxo-2,3-dihydro-1H-inden-5-yl}oxy)-1,3-dioxo-2,3-dihydro-1H-inden-2-yl]-2-oxoethyl}-N-[2-(2-methoxyethoxy)ethyl]carbamate] | – | – | – |
| 37 | 66 | – | – | CC[C@H](C)[C@H](NC(=O)C1C(=O)c2ccc(Oc3ccc4c(c3)C(=O)C(C(=O)N[C@H](C(=O)OC)[C@@H](C)CC)C4=O)cc2C1=O)C(=O)OC (stereo partly drawn) [Example 331, methyl (2S,3S)-2-({5-[(2-{[(2S,3S)-1-methoxy-3-methyl-1-oxopentan-2-yl]carbamoyl}-1,3-dioxo-2,3-dihydro-1H-inden-5-yl)oxy]-1,3-dioxo-2,3-dihydro-1H-inden-2-yl}formamido)-3-methylpentanoate] | – | – | – |
